Reference: the NIST ThermoML archive (doi:10.1021/je049960h)

Assay: xn = mol fraction of the nth substance listed
Settings: 101.3 kPa, Liquid; for viscosity: Capillary tube (Ostwald / Ubbelohde) method; for mass density: Pycnometric method; for thermal conductivity: Hot wire method

CC(O)COC(C)COC(C)CO (configuration not stated) [2-[2-(2-hydroxypropoxy)propoxy]-1-propanol] + O
Settings | mass density [kg/m3] | thermal conductivity [W/m/K] | viscosity [mPa·s]
294.8 K, x1 = 0.5 | 1028 | – | 66.6
295.35 K, x1 = 0.75 | 1021 | – | 71.2
295.4 K, x1 = 0.25 | 1037 | – | 36.7
297.3 K, x1 = 0.25 | – | 0.215 | –
297.7 K, x1 = 0.75 | – | 0.157 | –
298.1 K, x1 = 0.5 | – | 0.174 | –
313.05 K, x1 = 0.25 | 1023 | – | 14.2
313.05 K, x1 = 0.5 | 1013 | – | 22.4
313.05 K, x1 = 0.75 | 1007 | – | 24.6
324.3 K, x1 = 0.25 | – | 0.22 | –
325.2 K, x1 = 0.75 | – | 0.156 | –
325.8 K, x1 = 0.5 | – | 0.174 | –
333.05 K, x1 = 0.25 | 1006 | – | 6.27
333.1 K, x1 = 0.5 | 996.8 | – | 9.12
333.1 K, x1 = 0.75 | 990.4 | – | 9.92
349.1 K, x1 = 0.75 | – | 0.156 | –
349.7 K, x1 = 0.25 | – | 0.223 | –
350.2 K, x1 = 0.5 | – | 0.175 | –
353.05 K, x1 = 0.25 | 989 | – | 3.36
353.05 K, x1 = 0.5 | 979.9 | – | 4.5
353.1 K, x1 = 0.75 | 973.7 | – | 4.93
368.25 K, x1 = 0.25 | 975.3 | – | 2.3
368.25 K, x1 = 0.5 | 966.8 | – | 2.96
368.25 K, x1 = 0.75 | 960.5 | – | 3.21
374.1 K, x1 = 0.25 | – | 0.224 | –
375.1 K, x1 = 0.5 | – | 0.172 | –
375.5 K, x1 = 0.75 | – | 0.155 | –
378.15 K, x1 = 0.25 | 966.7 | – | 1.84
378.5 K, x1 = 0.5 | 957.4 | – | 2.32
378.55 K, x1 = 0.75 | 951.3 | – | 2.53
388.4 K, x1 = 0.5 | 947.8 | – | 1.88
388.4 K, x1 = 0.75 | 942.4 | – | 2.03
393.05 K, x1 = 0.25 | 953 | – | –
394.05 K, x1 = 0.5 | 944 | – | –
394.55 K, x1 = 0.25 | – | – | 1.35
395.15 K, x1 = 0.5 | – | – | 1.67
398.35 K, x1 = 0.75 | 933.3 | – | 1.66
398.9 K, x1 = 0.25 | – | 0.222 | –
399 K, x1 = 0.5 | – | 0.172 | –
399.4 K, x1 = 0.75 | – | 0.152 | –
408.3 K, x1 = 0.75 | 924.3 | – | 1.44
408.65 K, x1 = 0.5 | 930.6 | – | –
409.05 K, x1 = 0.25 | 936.6 | – | –
411.65 K, x1 = 0.5 | – | – | 1.26
412.05 K, x1 = 0.25 | – | – | 1.01
412.45 K, x1 = 0.75 | – | – | 1.31
414.15 K, x1 = 0.75 | 918.6 | – | –
422.5 K, x1 = 0.75 | – | 0.15 | –
423 K, x1 = 0.25 | – | 0.22 | –
424.5 K, x1 = 0.5 | – | 0.168 | –
426.65 K, x1 = 0.25 | 918.9 | – | –
426.75 K, x1 = 0.5 | 913.2 | – | –
428.25 K, x1 = 0.75 | – | – | 1.02
429.25 K, x1 = 0.75 | 904.7 | – | –
429.65 K, x1 = 0.25 | – | – | 0.785
429.75 K, x1 = 0.5 | – | – | 0.952
445 K, x1 = 0.75 | 889.5 | – | –
446.15 K, x1 = 0.25 | 897.8 | – | –
446.55 K, x1 = 0.75 | – | – | 0.791
446.85 K, x1 = 0.5 | 892.5 | – | –
448.2 K, x1 = 0.25 | – | 0.213 | –
448.3 K, x1 = 0.5 | – | 0.164 | –
449 K, x1 = 0.75 | – | 0.144 | –
449.15 K, x1 = 0.25 | – | – | 0.615
449.85 K, x1 = 0.5 | – | – | 0.738
